{"source": "ChEMBL document CHEMBL6182926", "about": "“Design, Synthesis, and Biological Activity Evaluation of Deuterated Diphenyl Azole Alcohol-Based CYP51 Inhibitors” (J Med Chem, 2025)", "key": {"Candida parapsilosis": {"tested_on": "Candida parapsilosis", "experiment": "Antifungal activity against Candida parapsilosis GIM 2.190 assessed as inhibition of visible growth", "format": "functional", "details": "Lodderomyces parapsilosis"}, "Pichia kudriavzevii [1]": {"tested_on": "Pichia kudriavzevii", "experiment": "Antifungal activity against Candida krusei AS 2.1045 assessed as inhibition of visible growth", "format": "functional"}, "Cryptococcus neoformans [2]": {"tested_on": "Cryptococcus neoformans", "experiment": "Antifungal activity against Cryptococcus neoformans CGMCC 2.3161 assessed as inhibition of visible growth", "format": "functional"}, "Aspergillus fumigatus": {"tested_on": "Aspergillus fumigatus", "experiment": "Antifungal activity against Aspergillus fumigatus CGMCC 3.7795 assessed as inhibition of visible growth", "format": "functional"}, "[3]": {"experiment": "Metabolic stability in human liver microsomes assessed as half life by LC-MS/MS analysis", "format": "ADME, Microsome", "details": "liver microsomes"}, "[4]": {"experiment": "Selectivity ratio, ratio of IC50 for cytotoxicity against human SH-SY5Y cells to MIC80 for antifungal activity against Candida albicans SC 5314", "format": "toxicity, cell-based"}, "Cytochrome P450 2C9": {"biological_target": "Cytochrome P450 2C9 (Homo sapiens, UniProt P11712)", "sequence (P11712 whole entry)": "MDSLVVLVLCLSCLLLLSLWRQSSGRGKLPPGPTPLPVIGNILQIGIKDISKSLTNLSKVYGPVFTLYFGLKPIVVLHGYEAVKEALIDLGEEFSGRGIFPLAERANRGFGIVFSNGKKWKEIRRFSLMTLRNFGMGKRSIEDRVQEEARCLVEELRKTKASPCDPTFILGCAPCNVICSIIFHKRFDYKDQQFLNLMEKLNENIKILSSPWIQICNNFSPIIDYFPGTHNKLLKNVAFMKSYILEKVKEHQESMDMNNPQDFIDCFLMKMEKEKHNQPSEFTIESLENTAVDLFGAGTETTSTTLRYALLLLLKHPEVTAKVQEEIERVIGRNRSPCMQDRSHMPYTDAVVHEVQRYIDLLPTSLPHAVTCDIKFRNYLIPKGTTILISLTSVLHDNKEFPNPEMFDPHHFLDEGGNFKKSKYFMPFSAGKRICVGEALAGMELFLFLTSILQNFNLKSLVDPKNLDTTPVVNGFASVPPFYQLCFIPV", "experiment": "Inhibition of CYP2C9 in human liver microsomes using diclofenac as substrate measured after 10 mins by LC/MS/MS analysis", "format": "ADME, Microsome"}, "Cytochrome P450 2C19": {"biological_target": "Cytochrome P450 2C19 (Homo sapiens, UniProt P33261)", "sequence (P33261 whole entry)": "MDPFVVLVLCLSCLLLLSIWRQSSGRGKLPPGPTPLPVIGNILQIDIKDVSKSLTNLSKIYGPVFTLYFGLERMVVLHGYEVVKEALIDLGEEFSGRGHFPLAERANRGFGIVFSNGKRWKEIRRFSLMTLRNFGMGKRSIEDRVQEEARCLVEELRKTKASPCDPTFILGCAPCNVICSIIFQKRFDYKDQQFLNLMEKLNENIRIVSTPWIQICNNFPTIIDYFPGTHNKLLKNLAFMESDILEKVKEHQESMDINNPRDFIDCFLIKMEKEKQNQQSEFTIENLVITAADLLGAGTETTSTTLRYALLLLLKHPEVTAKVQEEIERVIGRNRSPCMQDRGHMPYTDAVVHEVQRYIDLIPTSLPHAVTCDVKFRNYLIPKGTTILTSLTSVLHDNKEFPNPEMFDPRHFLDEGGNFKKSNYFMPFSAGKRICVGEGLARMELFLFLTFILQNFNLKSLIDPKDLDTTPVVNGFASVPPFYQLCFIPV", "experiment": "Inhibition of CYP2C19 in human liver microsomes using S-mephenytoin as substrate measured after 10 mins by LC/MS/MS analysis", "format": "ADME, Microsome"}, "Cytochrome P450 3A4": {"biological_target": "Cytochrome P450 3A4 (Homo sapiens, UniProt P08684)", "sequence (P08684 whole entry)": "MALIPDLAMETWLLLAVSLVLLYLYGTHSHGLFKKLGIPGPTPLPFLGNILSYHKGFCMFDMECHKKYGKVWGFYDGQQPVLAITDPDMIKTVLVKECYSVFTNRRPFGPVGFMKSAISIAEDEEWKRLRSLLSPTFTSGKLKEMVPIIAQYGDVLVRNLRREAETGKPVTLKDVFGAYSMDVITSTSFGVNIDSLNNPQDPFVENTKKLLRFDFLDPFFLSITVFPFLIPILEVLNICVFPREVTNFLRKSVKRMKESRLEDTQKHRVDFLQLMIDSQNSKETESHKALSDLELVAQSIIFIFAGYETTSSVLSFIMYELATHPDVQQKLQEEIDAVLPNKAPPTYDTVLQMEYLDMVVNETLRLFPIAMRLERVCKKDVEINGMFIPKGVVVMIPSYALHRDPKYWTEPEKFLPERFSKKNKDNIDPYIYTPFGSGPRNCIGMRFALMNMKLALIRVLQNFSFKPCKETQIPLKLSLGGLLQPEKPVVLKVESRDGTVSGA", "experiment": "Inhibition of CYP3A4 in human liver microsomes using testosterone as substrate measured after 10 mins by LC/MS/MS analysis", "format": "ADME, Microsome"}, "[5]": {"experiment": "Cytotoxicity against human SH-SY5Y cells measured after 72 hrs by MTT assay", "format": "toxicity, cell-based"}, "[6]": {"experiment": "Selectivity ratio, ratio of IC50 for cytotoxicity against human SH-SY5Y cells to MIC80 for antifungal activity against Candida tropicalis CGMCC 2.3739", "format": "toxicity, cell-based"}, "[7]": {"experiment": "Selectivity ratio, ratio of IC50 for cytotoxicity against human SH-SY5Y cells to MIC80 for antifungal activity against Candida parapsilosis GIM 2.190", "format": "toxicity, cell-based"}, "[8]": {"experiment": "Selectivity ratio, ratio of IC50 for cytotoxicity against human SH-SY5Y cells to MIC80 for antifungal activity against Clinical isolate Candida glabrata", "format": "toxicity, cell-based"}, "Pichia kudriavzevii [9]": {"tested_on": "Pichia kudriavzevii", "experiment": "Fungicidal activity against Candida krusei AS 2.1045 assessed as concentration of colonies (< 5) measured after 48 hrs incubation", "format": "functional"}, "Cryptococcus neoformans [10]": {"tested_on": "Cryptococcus neoformans", "experiment": "Fungicidal activity against Cryptococcus neoformans CGMCC 2.3161 assessed as concentration of colonies (< 5) measured after 48 hrs incubation", "format": "functional"}, "Pichia kudriavzevii [11]": {"tested_on": "Pichia kudriavzevii", "experiment": "Fungicidal index, ratio of MFC for fungicidal activity against Candida krusei AS 2.1045 to MIC80 for antifungal activity against Candida krusei AS 2.1045", "format": "functional"}, "Cryptococcus neoformans [12]": {"tested_on": "Cryptococcus neoformans", "experiment": "Fungicidal index, ratio of MFC for fungicidal activity against Cryptococcus neoformans CGMCC 2.3161 to MIC80 for antifungal activity against Cryptococcus neoformans CGMCC 2.3161", "format": "functional"}, "Nakaseomyces glabratus": {"tested_on": "Nakaseomyces glabratus", "experiment": "Inhibition of biofilm formation in clinical isolate Candida glabrata assessed as inhibition of metabolic activity of biofilm measured after 24 hrs by XTT assay", "format": "functional"}, "Cryptococcus neoformans [13]": {"tested_on": "Cryptococcus neoformans", "experiment": "Inhibition of biofilm formation in Cryptococcus neoformans CGMCC 2.3161 assessed as inhibition of metabolic activity of biofilm measured after 24 hrs by XTT assay", "format": "functional"}, "Candida albicans [14]": {"tested_on": "Candida albicans", "experiment": "Antifungal activity against Candida albicans SC5314 assessed as reduction in ergosterol at 0.05 ug/ml measured after 18 hrs incubation by gas chromatography-mass spectrometry (GCMS) analysis (reference value: 96.72%)", "format": "functional", "parameters": "scale not given: the % may be the effect or the level left", "details": "dose 0.05 µg/ml"}, "Candida albicans [15]": {"tested_on": "Candida albicans", "experiment": "Antifungal activity against Candida albicans SC5314 assessed as reduction in 14alpha-methylsterols at 0.05 ug/ml measured after 18 hrs incubation by gas chromatography-mass spectrometry (GCMS) analysis (reference value: 0.69%)", "format": "functional", "parameters": "scale not given: the % may be the effect or the level left", "details": "dose 0.05 µg/ml"}, "Candida albicans [16]": {"tested_on": "Candida albicans", "experiment": "Antifungal activity against Candida albicans SC5314 assessed as reduction in Obtusifoliol at 0.05 ug/ml measured after 18 hrs incubation by gas chromatography-mass spectrometry (GCMS) analysis", "format": "functional", "parameters": "scale not given: the % may be the effect or the level left", "details": "dose 0.05 µg/ml"}, "Candida albicans [17]": {"tested_on": "Candida albicans", "experiment": "Antifungal activity against Candida albicans SC5314 assessed as reduction in other sterol at 0.05 ug/ml measured after 18 hrs incubation by gas chromatography-mass spectrometry (GCMS) analysis (reference value: 2.59%)", "format": "functional", "parameters": "scale not given: the % may be the effect or the level left", "details": "dose 0.05 µg/ml"}, "Cryptococcus neoformans [18]": {"tested_on": "Cryptococcus neoformans", "experiment": "Antifungal activity against Cryptococcus neoformans CGMCC 2.3161 assessed as reduction in ergosterol at 0.0125 ug/ml measured after 18 hrs incubation by gas chromatography-mass spectrometry (GCMS) analysis (reference value: 94.48%)", "format": "functional", "parameters": "scale not given: the % may be the effect or the level left", "details": "dose 0.0125 µg/ml"}, "Cryptococcus neoformans [19]": {"tested_on": "Cryptococcus neoformans", "experiment": "Antifungal activity against Cryptococcus neoformans CGMCC 2.3161 assessed as reduction in Obtusifoliol at 0.0125 ug/ml measured after 18 hrs incubation by gas chromatography-mass spectrometry (GCMS) analysis", "format": "functional", "parameters": "scale not given: the % may be the effect or the level left", "details": "dose 0.0125 µg/ml"}, "Cryptococcus neoformans [20]": {"tested_on": "Cryptococcus neoformans", "experiment": "Antifungal activity against Cryptococcus neoformans CGMCC 2.3161 assessed as reduction in Eburicol at 0.0125 ug/ml measured after 18 hrs incubation by gas chromatography-mass spectrometry (GCMS) analysis", "format": "functional", "parameters": "scale not given: the % may be the effect or the level left", "details": "dose 0.0125 µg/ml"}, "Cryptococcus neoformans [21]": {"tested_on": "Cryptococcus neoformans", "experiment": "Antifungal activity against Cryptococcus neoformans CGMCC 2.3161 assessed as reduction in other sterol at 0.0125 ug/ml measured after 18 hrs incubation by gas chromatography-mass spectrometry (GCMS) analysis (reference value: 2.20%)", "format": "functional", "parameters": "scale not given: the % may be the effect or the level left", "details": "dose 0.0125 µg/ml"}, "Cryptococcus neoformans [22]": {"tested_on": "Cryptococcus neoformans", "experiment": "Antifungal activity against Cryptococcus neoformans CGMCC 2.3161 assessed as reduction in Lanosterol at 0.125 ug/ml measured after 18 hrs incubation by gas chromatography-mass spectrometry (GCMS) analysis", "format": "functional", "parameters": "scale not given: the % may be the effect or the level left", "details": "dose 0.125 µg/ml"}, "Cryptococcus neoformans [23]": {"tested_on": "Cryptococcus neoformans", "experiment": "Antifungal activity against Cryptococcus neoformans CGMCC 2.3161 assessed as reduction in Eburicol at 0.125 ug/ml measured after 18 hrs incubation by gas chromatography-mass spectrometry (GCMS) analysis", "format": "functional", "parameters": "scale not given: the % may be the effect or the level left", "details": "dose 0.125 µg/ml"}, "Cryptococcus neoformans [24]": {"tested_on": "Cryptococcus neoformans", "experiment": "Antifungal activity against Cryptococcus neoformans CGMCC 2.3161 assessed as reduction in other sterol at 0.125 ug/ml measured after 18 hrs incubation by gas chromatography-mass spectrometry (GCMS) analysis (reference value: 2.20%)", "format": "functional", "parameters": "scale not given: the % may be the effect or the level left", "details": "dose 0.125 µg/ml"}, "[25]": {"experiment": "AUC (0 to infinity) in Sprague-Dawley rat at 10 mg/kg, po by LC-MS/MS analysis", "format": "ADME, organism-based", "details": "in vivo"}, "[26]": {"experiment": "MRT (0 to infinity) in Sprague-Dawley rat at 10 mg/kg, po by LC-MS/MS analysis", "format": "ADME, organism-based", "details": "in vivo"}, "[27]": {"experiment": "Half life in Sprague-Dawley rat at 3 mg/kg, iv by LC-MS/MS analysis", "format": "ADME, organism-based", "details": "in vivo"}, "[28]": {"experiment": "AUC (0 to infinity) in Sprague-Dawley rat at 3 mg/kg, iv by LC-MS/MS analysis", "format": "ADME, organism-based", "details": "in vivo"}, "[29]": {"experiment": "Subacute toxicity in ICR mouse assessed as change in body weight at 100 mg/kg, oral gavage for 14 consecutive days", "format": "organism-based", "details": "in vivo, 336 h, time 14 day"}, "[30]": {"experiment": "Subacute toxicity in ICR mouse assessed as structural alteration in kidney at 100 mg/kg, oral gavage for 14 consecutive days by hematoxylin-eosin (H/E) staining analysis", "format": "organism-based", "details": "in vivo, 336 h, time 14 day"}, "Mus musculus": {"tested_on": "Mus musculus", "experiment": "In vivo antifungal activity against Candida albicans SC5314 infected in ICR mouse model assessed as mouse survival at 5 mg/kg, oral gavage measured for 21 days post infection", "format": "functional", "details": "504 h, time 21 day"}}}
{"smiles": "[2H]C([2H])([2H])N(Cc1ccc(-c2ccc(OC(F)(F)F)cc2)cc1)[C@H](C)[C@](O)(Cn1cncn1)c1ccc(F)cc1F", "values": [{"measurement": "MIC80", "setting": "Candida parapsilosis", "value": 0.006, "unit": "µg/mL"}, {"measurement": "MIC80", "setting": "Pichia kudriavzevii [1]", "value": 0.012, "unit": "µg/mL"}, {"measurement": "MIC80", "setting": "Cryptococcus neoformans [2]", "value": 0.012, "unit": "µg/mL"}, {"measurement": "MIC80", "setting": "Aspergillus fumigatus", "value": 0.025, "unit": "µg/mL"}, {"measurement": "half-life", "setting": "[3]", "value": 0.67, "unit": "h"}, {"measurement": "selectivity ratio", "setting": "[4]", "value": "> 100"}, {"measurement": "IC50", "setting": "Cytochrome P450 2C9", "value": 1.76, "unit": "µM"}, {"measurement": "IC50", "setting": "Cytochrome P450 2C19", "value": 1.71, "unit": "µM"}, {"measurement": "IC50", "setting": "Cytochrome P450 3A4", "value": 5.11, "unit": "µM"}, {"measurement": "IC50 at 72 h", "setting": "[5]", "value": 25.2, "unit": "µM"}, {"measurement": "selectivity ratio", "setting": "[6]", "value": "> 100"}, {"measurement": "selectivity ratio", "setting": "[7]", "value": "> 100"}, {"measurement": "selectivity ratio", "setting": "[8]", "value": "> 100"}, {"measurement": "MFC", "setting": "Pichia kudriavzevii [9]", "value": 0.125, "unit": "µg/mL"}, {"measurement": "MFC", "setting": "Cryptococcus neoformans [10]", "value": 0.062, "unit": "µg/mL"}, {"measurement": "Activity_index", "setting": "Pichia kudriavzevii [11]", "value": 10}, {"measurement": "Activity_index", "setting": "Cryptococcus neoformans [12]", "value": 5}, {"measurement": "MIC50", "setting": "Nakaseomyces glabratus", "value": 0.062, "unit": "µg/mL"}, {"measurement": "MIC50", "setting": "Cryptococcus neoformans [13]", "value": 16, "unit": "µg/mL"}, {"measurement": "Activity", "setting": "Candida albicans [14]", "value": 3.68, "unit": "%"}, {"measurement": "Activity", "setting": "Candida albicans [15]", "value": 7.73, "unit": "%"}, {"measurement": "Activity", "setting": "Candida albicans [16]", "value": 18, "unit": "%"}, {"measurement": "Activity", "setting": "Candida albicans [17]", "value": 3.13, "unit": "%"}, {"measurement": "Activity", "setting": "Cryptococcus neoformans [18]", "value": 62.56, "unit": "%"}, {"measurement": "Activity", "setting": "Cryptococcus neoformans [19]", "value": 5.76, "unit": "%"}, {"measurement": "Activity", "setting": "Cryptococcus neoformans [20]", "value": 11.59, "unit": "%"}, {"measurement": "Activity", "setting": "Cryptococcus neoformans [21]", "value": 8.38, "unit": "%"}, {"measurement": "Activity", "setting": "Cryptococcus neoformans [22]", "value": 6.14, "unit": "%"}, {"measurement": "Activity", "setting": "Cryptococcus neoformans [23]", "value": 47.42, "unit": "%"}, {"measurement": "Activity", "setting": "Cryptococcus neoformans [24]", "value": 11.5, "unit": "%"}, {"measurement": "AUC(0-inf)", "setting": "[25]", "value": 4830, "unit": "ng·h/mL"}, {"measurement": "MRT inf", "setting": "[26]", "value": 6.18, "unit": "h"}, {"measurement": "t1/2", "setting": "[27]", "value": 6.79, "unit": "h"}, {"measurement": "AUC", "setting": "[28]", "value": 2286, "unit": "ng·h/mL"}, {"measurement": "Activity", "setting": "[29]", "value": "Non-toxic"}, {"measurement": "Activity", "setting": "[30]", "value": "Non-toxic"}, {"measurement": "survival at 5 mg/kg", "setting": "Mus musculus", "value": 100, "unit": "%"}]}
